Consider 21 compounds from patent US20160297833A1, “THIENOPYRIMIDINES AS MKNK1 AND MKNK2 INHIBITORS” (BAYER PHARMA AKTIENGESELLSCHAFT, priority 2013, published 2016).

The test deals with T1, human full-length MKNK1 (Homo sapiens, UniProt Q9BUB5, T385D).
T1 construct: GST (N); purchased Carna Biosciences 02-145; host or cells: insect cells (baculovirus expression system)
T1 sequence (Q9BUB5 1-424 isoform Q9BUB5-2 T344D): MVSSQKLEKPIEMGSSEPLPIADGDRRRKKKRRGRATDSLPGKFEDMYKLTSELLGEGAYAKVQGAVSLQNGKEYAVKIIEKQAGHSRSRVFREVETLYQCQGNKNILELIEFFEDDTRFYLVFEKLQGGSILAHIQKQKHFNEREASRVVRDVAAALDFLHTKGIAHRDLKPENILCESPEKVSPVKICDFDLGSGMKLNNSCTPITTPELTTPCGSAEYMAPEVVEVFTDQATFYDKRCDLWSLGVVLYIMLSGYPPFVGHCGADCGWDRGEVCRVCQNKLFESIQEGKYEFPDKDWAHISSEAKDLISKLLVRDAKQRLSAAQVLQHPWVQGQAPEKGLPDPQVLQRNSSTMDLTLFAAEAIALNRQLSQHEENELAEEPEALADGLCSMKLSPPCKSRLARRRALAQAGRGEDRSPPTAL
Nature of the test: MKNK1 kinase high ATP assay (TR-FRET). The note with it: Table 1; MKNK1 kinase high ATP assay, 2 mM ATP; read-out: MKNK1 IC50. The test is classed as biochemical. As for the experimental part:
MKNK1 Kinase High ATP Assay
MKNK1-inhibitory activity at high ATP of compounds of the present invention after their preincubation with MKNK1 was quantified employing the TR-FRET-based MKNK1 high ATP assay as described in the following paragraphs.
As substrate for the kinase reaction the biotinylated peptide biotin-Ahx-[…] (C-terminus in amide form) was used, which can be purchased e.g. from the company Biosyntan (Berlin-Buch, Germany).
For the assay 50 nL of a 100 fold concentrated solution of the test compound in DMSO was pipetted into a black low volume 384 well microtiter plate (Greiner Bio-One, Frickenhausen, Germany), 2 μL of a solution of MKNK1 in aqueous assay buffer [50 mM HEPES pH 7.5, 5 mM MgCl2, 1.0 mM dithiothreitol, 0.005% (v/v) Nonidet-P40 (Sigma)] was added and the mixture was incubated for 15 min at 22° C. to allow pre-binding of the test compounds to the enzyme before the start of the kinase reaction. Then the kinase reaction was started by the addition of 3 μL of a solution of adenosine-tri-phosphate (ATP, 3.3 mM=>final conc. in the 5 μL assay volume is 2 mM) and substrate (0.1 μM=>final conc. in the 5 μL assay volume is 0.06 μM) in assay buffer and the resulting mixture was incubated for a reaction time of 30 min at 22° C. The concentration of MKNK1 was adjusted depending of the activity of the enzyme lot and was chosen appropriate to have the assay in the linear range, typical concentrations were in the range of 0.003 μg/mL. The reaction was stopped by the addition of 5 μL of a solution of TR-FRET detection reagents (5 nM streptavidine-XL665 [Cisbio Bioassays, Codolet, France] and 1 nM anti-ribosomal protein S6 (pSer236)-antibody from Invitrogen [#44921G] and 1 nM LANCE EU-W1024 labeled ProteinG [Perkin-Elmer, product no. AD0071]) in an aqueous EDTA-solution (100 mM EDTA, 0.1% (w/v) bovine serum albumin in 50 mM HEPES pH 7.5).
The resulting mixture was incubated for 1 h at 22° C. to allow the formation of complex between the phosphorylated biotinylated peptide and the detection reagents. Subsequently the amount of phosphorylated substrate was evaluated by measurement of the resonance energy transfer from the Eu-chelate to the streptavidine-XL. Therefore, the fluorescence emissions at 620 nm and 665 nm after excitation at 350 nm were measured in a TR-FRET reader, e.g. a Rubystar (BMG Labtechnologies, Offenburg, Germany) or a Viewlux (Perkin-Elmer). The ratio of the emissions at 665 nm and at 622 nm was taken as the measure for the amount of phosphorylated substrate.
(In TR-FRET formats the signal depends on donor and acceptor labels being close together.)
One may read the IC50 as the concentration that gives 50% inhibition. On to `C[C@H]1COCCN1C(=O)[C@H]1CCc2c(sc3ncnc(Nc4cc5cn[nH]c5cc4N4CCCC4)c23)C1` [Example 185, [(3S)-3-Methylmorpholin-4-yl][(7S)-4-{[6-(pyrrolidin-1-yl)-1H-indazol-5-yl]amino}-5,6,7,8-tetrahydro[1]benzothieno[2,3-d]pyrimidin-7-yl]methanone], for which the IC50 was determined as 0.6 nM. The value for `O=C([C@H]1CCc2c(sc3ncnc(Nc4ccc5[nH]ncc5c4)c23)C1)N1C[C@@H]2C[C@H]1CO2` [Example 10, [(7S)-4-(1H-Indazol-5-ylamino)-5,6,7,8-tetrahydro[1]benzothieno[2,3-d]pyrimidin-7-yl][(1S,4S)-2-oxa-5-azabicyclo[2.2.1]hept-5-yl]methanone] was 11.1 nM; that for `COCCN(C)C(=O)[C@H]1CCc2c(sc3ncnc(Nc4cc5cn[nH]c5cc4OC)c23)C1` [Example 217, (7S)—N-(2-Methoxyethyl)-4-[(6-methoxy-1H-indazol-5-yl)amino]-N-methyl-5,6,7,8-tetrahydro[1]benzothieno[2,3-d]pyrimidine-7-carboxamide] was 0.3 nM; that for `COc1cc2[nH]ncc2cc1Nc1ncnc2sc3c(c12)CC[C@H](C(=O)N1C[C@@H]2C[C@H]1CN2C)C3` [Example 120, {(7S)-4-[(6-Methoxy-1H-indazol-5-yl)amino]-5,6,7,8-tetrahydro[1]benzothieno[2,3-d]pyrimidin-7-yl}[(1S,4S)-5-methyl-2,5-diazabicyclo[2.2.1]hept-2-yl]methanone] was 0.2 nM. Regarding `C[C@H]1COCCN1C(=O)[C@H]1CCc2c(sc3ncnc(Nc4cc5cn[nH]c5cc4OCCN(C)C)c23)C1` [Example 117, [(7S)-4-({6-[2-(Dimethylamino)ethoxy]-1H-indazol-5-yl}amino)-5,6,7,8-tetrahydro[1]benzothieno[2,3-d]pyrimidin-7-yl][(3S)-3-methylmorpholin-4-yl]methanone], the IC50 came out at 20 nM. Under `CSc1cc2[nH]ncc2cc1Nc1ncnc2sc3c(c12)CC[C@H](C(=O)N1C[C@@H](C)O[C@@H](C)C1)C3` [Example 252, [(2R,6S)-2,6-Dimethylmorpholin-4-yl][(7S)-4-{[6-(methylsulfanyl)-1H-indazol-5-yl]amino}-5,6,7,8-tetrahydro[1]benzothieno[2,3-d]pyrimidin-7-yl]methanone] stands 1.5 nM. Regarding `CCOc1cc2[nH]ncc2cc1Nc1ncnc2sc3c(c12)CC[C@H](C(=O)N1C[C@H](O)[C@@H](O)C1)C3` [Example 76, [(3S,4S)-3,4-Dihydroxypyrrolidin-1-yl]{(7S)-4-[(6-ethoxy-1H-indazol-5-yl)amino]-5,6,7,8-tetrahydro[1]benzothieno[2,3-d]pyrimidin-7-yl}methanone], the IC50 was found to be 0.4 nM.

Turning to `CN(C)C(=O)[C@H]1CCc2c(sc3ncnc(Nc4cc5cn[nH]c5cc4N(C)CC(C)(C)O)c23)C1` [Example 101, (7S)-4-({6-[(2-Hydroxy-2-methylpropyl)(methyl)amino]-1H-indazol-5-yl}amino)-N,N-dimethyl-5,6,7,8-tetrahydro[1]benzothieno[2,3-d]pyrimidine-7-carboxamide], the IC50 is 9.1 nM.

Take `CN(C)CCOc1cc2[nH]ncc2cc1Nc1ncnc2sc3c(c12)CC[C@H](C(=O)N1CCC(N(C)C)CC1)C3` [Example 134, [(7S)-4-({6-[2-(Dimethylamino)ethoxy]-1H-indazol-5-yl}amino)-5,6,7,8-tetrahydro[1]benzothieno[2,3-d]pyrimidin-7-yl][4-(dimethylamino)piperidin-1-yl]methanone]: the IC50 was 8.3 nM.

As to `COc1cc2[nH]ncc2cc1Nc1ncnc2sc3c(c12)CC[C@H](C(=O)N(CCCN(C)C)Cc1ccccc1)C3` [Example 63, (7S)—N-Benzyl-N-[3-(dimethylamino)propyl]-4-[(6-methoxy-1H-indazol-5-yl)amino]-5,6,7,8-tetrahydro[1]benzothieno[2,3-d]pyrimidine-7-carboxamide], the IC50 is 0.2 nM.

`COc1cc2[nH]ncc2cc1Nc1ncnc2sc3c(c12)CC[C@H](C(=O)N1C[C@H](C)O[C@@H](C)C1)C3` [Example 210, [(2S,6S)-2,6-Dimethylmorpholin-4-yl]{(7S)-4-[(6-methoxy-1H-indazol-5-yl)amino]-5,6,7,8-tetrahydro[1]benzothieno[2,3-d]pyrimidin-7-yl}methanone]: the IC50 was determined as 0.4 nM. As for `CSc1cc2[nH]ncc2cc1Nc1ncnc2sc3c(c12)CC[C@H](C(=O)N1CC(N(C)C)C1)C3` [Example 285, [3-(dimethylamino)azetidin-1-yl][(7S)-4-{[6-(methylsulfanyl)-1H-indazol-5-yl]amino}-5,6,7,8-tetrahydro[1]benzothieno[2,3-d]pyrimidin-7-yl]methanone], the IC50 came out at 1.8 nM. Turning to `COC(=O)NCCOc1cc2[nH]ncc2cc1Nc1ncnc2sc3c(c12)CC[C@H](C(=O)N(C)C)C3` [Example 258, Methyl {2-[(5-{[(7S)-7-(dimethylcarbamoyl)-5,6,7,8-tetrahydro[1]benzothieno[2,3-d]pyrimidin-4-yl]amino}-1H-indazol-6-yl)oxy]ethyl}carbamate], the IC50 came out at 0.4 nM. Under `COc1cc2[nH]ncc2cc1Nc1ncnc2sc3c(c12)CC[C@H](C(=O)N(CCN(C)C)Cc1cccnc1)C3` [Example 61, (7S)—N-[2-(Dimethylamino)ethyl]-4-[(6-methoxy-1H-indazol-5-yl)amino]-N-(pyridin-3-ylmethyl)-5,6,7,8-tetrahydro[1]benzothieno[2,3-d]pyrimidine-7-carboxamide] stands 0.1 nM. Under `CC(C)Oc1cc2[nH]ncc2cc1Nc1ncnc2sc3c(c12)CC[C@H](C(=O)N(C)CC(C)(C)O)C3` [Example 126, (7S)—N-(2-Hydroxy-2-methylpropyl)-N-methyl-4-{[6-(propan-2-yloxy)-1H-indazol-5-yl]amino}-5,6,7,8-tetrahydro[1]benzothieno[2,3-d]pyrimidine-7-carboxamide] stands 0.3 nM; under `CN(C)C(=O)[C@H]1CCc2c(sc3ncnc(Nc4cc5cn[nH]c5cc4O)c23)C1` [Example 96, (7S)-4-[(6-Hydroxy-1H-indazol-5-yl)amino]-N,N-dimethyl-5,6,7,8-tetrahydro[1]benzothieno[2,3-d]pyrimidine-7-carboxamide], 0.7 nM.

`CN(C)C(=O)[C@H]1CCc2c(sc3ncnc(Nc4cc5cn[nH]c5cc4OCCCN4CCCCC4)c23)C1` [Example 278, (7S)—N,N-Dimethyl-4-({6-[3-(piperidin-1-yl)propoxy]-1H-indazol-5-yl}amino)-5,6,7,8-tetrahydro[1]benzothieno[2,3-d]pyrimidine-7-carboxamide]: the IC50 was determined as 53.7 nM. Regarding `CN(C)C(=O)[C@H]1CCc2c(sc3ncnc(Nc4cc5cn[nH]c5cc4OCCNC(=O)CC(C)(C)C)c23)C1` [Example 272, (7S)-4-[(6-{2-[(3,3-Dimethylbutanoyl)amino]ethoxy}-1H-indazol-5-yl)amino]-N,N-dimethyl-5,6,7,8-tetrahydro[1]benzothieno[2,3-d]pyrimidine-7-carboxamide], the IC50 worked out at 1.3 nM.

On to `CC(C)Oc1cc2[nH]ncc2cc1Nc1ncnc2sc3c(c12)CC[C@H](C(=O)N1CC[C@@H](N(C)C)C1)C3` [Example 169, [(3R)-3-(Dimethylamino)pyrrolidin-1-yl][(7S)-4-{[6-(propan-2-yloxy)-1H-indazol-5-yl]amino}-5,6,7,8-tetrahydro[1]benzothieno[2,3-d]pyrimidin-7-yl]methanone], for which the IC50 was found to be 0.1 nM. For `C[C@H]1CN(C(=O)[C@H]2CCc3c(sc4ncnc(Nc5cc6cn[nH]c6cc5Br)c34)C2)C[C@H](C)O1` [Example 236, {(7S)-4-[(6-Bromo-1H-indazol-5-yl)amino]-5,6,7,8-tetrahydro[1]benzothieno[2,3-d]pyrimidin-7-yl}[(2S,6S)-2,6-dimethylmorpholin-4-yl]methanone], the IC50 was 14.6 nM. In the case of `CN(C)C(=O)[C@H]1CCc2c(sc3ncnc(Nc4cc5cn[nH]c5cc4OCCNC(=O)CC4CCCCC4)c23)C1` [Example 274, (7S)-4-[(6-{2-[(Cyclohexylacetyl)amino]ethoxy}-1H-indazol-5-yl)amino]-N,N-dimethyl-5,6,7,8-tetrahydro[1]benzothieno[2,3-d]pyrimidine-7-carboxamide], the IC50 was 0.3 nM.
